# Legend:
# hFAP = hFAP (Homo sapiens (Human), UniProt Q12884); assay: Saturation binding on isolated HEK-293.hFAP cell membranes; conditions: 37° C.
# Description: The cells were homogenized using Ultra-Turrax, and the homogenized suspension was centrifuged at 500×g for 10 min at 4° C. The supernatant was collected in centrifuge tubes (Beckman Coulter Inc., Brea, CA, USA). This procedure was then repeated 5 times. The collected supernatant was centrifuged in an ultra-centrifuge (Beckman) at 4° C. for 55 min at 49,000×g. Then, the pellet was re-suspended in 10 mM ice-cold HEPES buffer (pH 7.5), aliquoted, and stored at −80° C. The protein concentration of those membrane suspensions was determined by the Bradford method, BSA as the standard.
# Each assay tube contained 170 μL of binding buffer (20 mM HEPES, pH 7.4, containing 4 mM μgCl2, 0.2% BSA, 20 μg/L bacitracin, 20 μg/L PMSF and 200,000 KIU/L aprotinin). The incubation was initiated by adding 30 μL of radioligand solution at 10 times the final concentration and 100 μL of cell membrane suspension to yield 10 μg of protein per well. For the determination of the non-specific binding, 140 μL of the above binding buffer was added along with 30 μL of FAPI-46 to obtain (0.1 mM). Bound fractions were plotted versus the corresponding radioligand concentration at equilibrium. The dissociation constant (KD) and maximal binding capacity (Bmax) values were calculated using GraphPad Software Inc., Prism 7, San Diego, CA, USA (Table 33 and FIG. 21).
# [1] = Lipophilicity, log D by shake-flask method (1-octanol/PBS pH 7.4); assay type: physicochemical; conditions: shake-flask, Table 17, mean ± SD
# Description: The radiotracer (1 μM) was added to a 50:50 pre-saturated mixture of 1-octanol and phosphate buffered saline (PBSpH 7.4). The solution was vortexed for 30 min and then centrifuged at 3,000 rpm to achieve a phase separation. Aliquots from each phase were collected and measured in a gamma-counter. The distribution coefficient was calculated as the average of the logarithmic values of the ratio between the radioactivity in the organic and the PBS phase.
# Table 17. Lipophilicity expressed as the log distribution coefficient D (log D(Octanol/PBS pH7.4)) of ^61Cu-radiotracers versus ^68Ga-radiotracers (reference radiotracers).
# In a pre-lubricated Eppendorf tube, a pre-saturated mixture of 500 μL of 1-octanol and 500 μL of PBS pH 7.4 (phosphate-buffered saline) were added. An aliquot of […] in 10 μL of the radioligand was added to this mixture, shaken for 30 min, and then centrifuged at 3000 rcf for 10 min to achieve phase separation. Aliquots of 100 μL were removed from the 1-octanol and from the PBS phases, and the activity was measured in a […]. The partition coefficient was calculated as the average log ratio value of the radioactivity in the organic fraction and PBS fraction.
# LNCaP xenografts = assay: Quantitative biodistribution in LNCaP xenografted mice; assay type: in vivo; conditions: LNCap xenograft mice, 1 h after injection
# Description: The mice were randomly distributed in groups and euthanized at 1 and at 4 hours post-injection. The organs of interest were collected, rinsed, blotted, weighed and counted in a gamma counter. The results are expressed as percentage of injected activity per gram (% IA/g), representing the mean±standard deviation of n=4-8 mice per group and they were obtained by extrapolation from counts of an aliquot taken from the injected solution as standard.
# The biodistribution of the [^61Cu]Cu-NODAGA radiotracers was compared with the reference compounds used in patients under identical experimental conditions. The mice were randomly distributed in groups, injected with the radiotracer under investigation and euthanized at 1 and at 4 hours post-injection of the radiotracers under investigation. The organs of interest were collected, rinsed, blotted, weighed and counted in a gamma counter. The results are expressed as percentage of injected activity per gram (% IA/g), representing the mean±standard deviation of all mice per group and they were obtained by extrapolation from counts of an aliquot taken from the injected solution as standard.
# Chain of hFAP (Q12884 whole entry): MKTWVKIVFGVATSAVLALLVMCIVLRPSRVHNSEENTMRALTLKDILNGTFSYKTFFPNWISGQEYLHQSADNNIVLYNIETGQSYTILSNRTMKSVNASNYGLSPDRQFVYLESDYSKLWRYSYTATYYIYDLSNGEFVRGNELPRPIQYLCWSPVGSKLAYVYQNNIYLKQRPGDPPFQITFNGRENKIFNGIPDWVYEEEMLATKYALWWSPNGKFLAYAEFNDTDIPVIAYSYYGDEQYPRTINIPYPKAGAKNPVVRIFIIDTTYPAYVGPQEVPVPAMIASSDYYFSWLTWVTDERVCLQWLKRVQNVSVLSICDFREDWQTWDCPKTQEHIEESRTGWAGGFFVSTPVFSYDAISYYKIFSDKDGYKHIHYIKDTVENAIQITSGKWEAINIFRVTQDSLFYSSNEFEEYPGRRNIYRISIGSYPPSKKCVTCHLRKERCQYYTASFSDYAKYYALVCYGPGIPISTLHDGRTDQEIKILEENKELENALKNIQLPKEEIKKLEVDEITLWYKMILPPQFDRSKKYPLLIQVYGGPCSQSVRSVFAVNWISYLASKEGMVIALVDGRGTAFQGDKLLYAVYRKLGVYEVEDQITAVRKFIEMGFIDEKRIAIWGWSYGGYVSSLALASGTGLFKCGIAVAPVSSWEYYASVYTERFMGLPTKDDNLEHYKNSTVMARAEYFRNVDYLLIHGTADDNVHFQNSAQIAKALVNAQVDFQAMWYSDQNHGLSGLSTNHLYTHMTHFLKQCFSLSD
Kd (hFAP) [nM],log D(O/PBS pH 7.4) [1],Biodistribution Adrenal (LNCaP xenografts) [% IA/g],Biodistribution Blood (LNCaP xenografts) [% IA/g],Biodistribution Bone (LNCaP xenografts) [% IA/g],Biodistribution Heart (LNCaP xenografts) [% IA/g],Biodistribution Intestine (LNCaP xenografts) [% IA/g],Biodistribution Kidney (LNCaP xenografts) [% IA/g],Biodistribution LNCaP-tumor (LNCaP xenografts) [% IA/g],Biodistribution Liver (LNCaP xenografts) [% IA/g],Biodistribution Lung (LNCaP xenografts) [% IA/g],Biodistribution Muscle (LNCaP xenografts) [% IA/g],Biodistribution Pancreas (LNCaP xenografts) [% IA/g],Biodistribution Salivary gland (LNCaP xenografts) [% IA/g],Biodistribution Spleen (LNCaP xenografts) [% IA/g],Biodistribution Stomach (LNCaP xenografts) [% IA/g],Ratio Tumor/Blood (LNCaP xenografts),Ratio Tumor/Kidney (LNCaP xenografts),Ratio Tumor/Liver (LNCaP xenografts),Ratio Tumor/Muscles (LNCaP xenografts),SMILES
3 to 3.9,,,,,,,,,,,,,,,,,,,,CN(C(=O)CCC(=O)N1CCN(C(=O)CC[C@H](C(=O)O)N2CCN3CCN(CC2)CC(=O)[O][Cu][O]C(=O)C3)CC1)c1ccc2nccc(C(=O)NCC(=O)N3CC(F)(F)C[C@H]3C#N)c2c1 [[^61Cu]Cu-NODAGA-F4]
,−3.89 ± 0.19,19.2 ± 5.35,0.25 ± 0.07,3.69 ± 1.86,0.32 ± 0.10,1.52 ± 0.60,159 ± 31,10.2 ± 1.53,0.54 ± 0.27,1.43 ± 0.43,0.90 ± 0.36,0.70 ± 0.12,1.56 ± 0.31,6.38 ± 1.37,0.69 ± 0.11,45.3 ± 19.7,0.07 ± 0.02,23.5 ± 12.5,13.6 ± 8.3,O=C([O-])CN(CCN(CC(=O)[O-])Cc1cc(CCC(=O)NCCCCCC(=O)NCCCC[C@H](NC(=O)N[C@@H](CCC(=O)O)C(=O)O)C(=O)O)ccc1[O-])Cc1cc(CCC(=O)O)ccc1[O-].[68Ga+3].[OH3+] [[^68Ga]Ga-PSMA-11]

# Source: US20240173440A1, “HIGH PURITY COPPER RADIOPHARMACEUTICAL COMPOSITIONS AND DIAGNOSTIC AND THERAPEUTIC USES THEREOF” (Nuclidium AG, priority 2022, published 2024)
